In patent US20120165304A1, “6,7,8,9-Tetrahydro-5H-1,4,7,10a-tetraaza-cyclohept[f]indene derivatives, pharmaceutical compositions containing these compounds, their use and processes for preparing them” (BOEHRINGER INGELHEIM INTERNATIONAL GMBH, priority 2008, published 2012):

Target: human 5-HT2C receptor (Homo sapiens, UniProt P28335, I156V/I160V/N158S)
Assay: cell-based

human 5-HT2C receptor, sequence (P28335 33-458 I156V/N158S/I160V limits assumed): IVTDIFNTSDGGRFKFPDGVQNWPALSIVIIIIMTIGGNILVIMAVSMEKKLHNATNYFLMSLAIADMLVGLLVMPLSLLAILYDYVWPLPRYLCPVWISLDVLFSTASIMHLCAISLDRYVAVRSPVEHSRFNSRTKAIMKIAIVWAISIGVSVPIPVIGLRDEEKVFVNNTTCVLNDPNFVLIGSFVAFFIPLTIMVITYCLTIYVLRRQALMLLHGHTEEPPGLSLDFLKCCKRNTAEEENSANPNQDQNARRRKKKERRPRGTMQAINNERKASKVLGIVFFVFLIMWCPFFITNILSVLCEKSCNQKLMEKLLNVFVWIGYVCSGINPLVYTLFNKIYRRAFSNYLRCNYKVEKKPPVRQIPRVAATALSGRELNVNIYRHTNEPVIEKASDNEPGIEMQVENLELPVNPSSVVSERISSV

Compound | EC50 [nM]
CN1C(C)(C)CC(NC(=O)C2CN(c3c4c(nc5ccnn35)CCNCC4)C2)CC1(C)C [Example 37.106] | 9
c1cnn(CC2CN(c3c4c(nc5ccnn35)CCNCC4)C2)c1 [Example 17, 10-(3-Pyrazol-1-ylmethyl-azetidin-1-yl)-6,7,8,9-tetrahydro-5H-1,4,7,10a-tetraaza-cyclohepta[f]indene] | 15
CC1(C(=O)N2CCC(c3ccccc3F)CC2)CN(c2c3c(nc4ccnn24)CCNCC3)C1 [Example 32.6] | 2780
CCOC1CN(c2c3c(nc4ccnn24)CCNCC3)C1 [Example 20.2] | 658
CN(Cc1cc(Cl)cc(Cl)c1)C(=O)C1CN(c2c3c(nc4ccnn24)CCNCC3)C1 [Example 31.165] | 72
c1ccc(OC2CN(c3c4c(nc5ccnn35)CCNCC4)C2)cc1 [Example 1.3] | 18
O=C(C1CN(c2c3c(nc4ccnn24)CCNCC3)C1)N1CCN(C2CC2)CC1 [Example 37.32] | 22
CCN1CCCN(C(=O)C2CN(c3c4c(nc5ccnn35)CCN(C)CC4)C2)CC1 [Example 36.50] | 81
O=C(C1CN(c2c3c(nc4ccnn24)CCNCC3)C1)N1CC=CCC1 [Example 31.178] | 109
Cc1ccc2c(c1)CCCN2C(=O)C1CN(c2c3c(nc4ccnn24)CCNCC3)C1 [Example 31.190] | 4
O=C(NC1CCC1)C1CN(c2c3c(nc4ccnn24)CCNCC3)C1 [Example 37.92] | 161
c1ccc(CN2CCN(c3c4c(nc5ccnn35)CCNCC4)CC2)cc1 [Example 1.1] | 108
CN1CCc2nc3ccnn3c(N3CC(C(=O)NC4CC(C)(C)NC(C)(C)C4)C3)c2CC1 [Example 36.9] | 379
c1ccc(C(OC2CCCN(c3c4c(nc5ccnn35)CCNCC4)C2)c2ccccc2)cc1 (stereo not shown) [Example 1.37] | 1300
c1cc2nc3c(c(N4CC(OCC5CC5)C4)n2n1)CCNCC3 [Example 20.3] | 469
Cc1ccc(F)c(OCC2CN(c3c4c(nc5ccnn35)CCNCC4)C2)c1 [Example 15.5] | 7
C#CC1CCN(C(=O)C2CN(c3c4c(nc5ccnn35)CCNCC4)C2)C1 (stereo not shown) [Example 38, (3-Ethynyl-pyrrolidin-1-yl)-[1-(6,7,8,9-tetrahydro-5H-1,4,7,10a-tetraaza-cyclohepta[f]inden-10-yl)-azetidin-3-yl]-methanone] | 6
CC1CNCCc2c1nc1ccnn1c2N1CC(C(=O)N2CCC(C)(C)C2)C1 (stereo not shown) [Example 42, (3,3-Dimethyl-pyrrolidin-1-yl)-[1-(5-methyl-6,7,8,9-tetrahydro-5H-1,4,7,10a-tetraaza-cyclohept[f]inden-10-yl)-azetidin-3-yl]-methanone] | 31
CN1CCc2nc3ccnn3c(N3CC(C(=O)N4CCC(C(F)(F)F)C4)C3)c2CC1 (stereo not shown) [Example 36.27] | 89
O=C(C1CN(c2c3c(nc4ccnn24)CCNCC3)C1)N1CCc2ccccc2CC1 [Example 31.33] | 196
COCCNC(=O)C1CN(c2c3c(nc4ccnn24)CCNCC3)C1 [Example 37.73] | 88
c1cc2nc3c(c(N4CC(OC5CCCC5)C4)n2n1)CCNCC3 [Example 20.5] | 358
COc1cc(Cl)ccc1OC1CN(c2c3c(nc4ccnn24)CCNCC3)C1 [Example 35.21] | 75
O=C(NC1CCCCC1)C1CN(c2c3c(nc4ccnn24)CCNCC3)C1 [Example 37.71] | 114
Cc1ccc2c(c1)CCN2C(=O)C1CN(c2c3c(nc4ccnn24)CCNCC3)C1 [Example 31.156] | 135
O=C(C1CN(c2c3c(nc4ccnn24)CCNCC3)C1)N1CCC(c2cc(Cl)cc(Cl)c2)CC1 [Example 31.214] | 471

Compound | EC50 [nM]
CCc1cnn2c(N3CC(Oc4ccc(OC)cc4)C3)c3c(nc12)CCNCC3 [Example 25.1] | 77
O=C(NC1CC2CCC1C2)C1CN(c2c3c(nc4ccnn24)CCNCC3)C1 (stereo not shown) [Example 37.84] | 62
CC(C)N1CCN(C(=O)C2CN(c3c4c(nc5ccnn35)CCN(C)CC4)C2)CC1 [Example 36.6] | 67
c1cc2nc3c(c(N4CC(OCC5CCCCC5)C4)n2n1)CCNCC3 [Example 20.4] | 543
CC1CCN(C(=O)C2CN(c3c4c(nc5ccnn35)CCNCC4)C2)CC1 [Example 31.228] | 42
c1ccc2cc(OC3CN(c4c5c(nc6ccnn46)CCNCC5)C3)ccc2c1 [Example 35.46] | 495
CN(CCc1ccc2ccccc2c1)C(=O)C1CN(c2c3c(nc4ccnn24)CCNCC3)C1 [Example 31.71] | 366
CC1CCCCN1C(=O)C1CN(c2c3c(nc4ccnn24)CCNCC3)C1 (stereo not shown) [Example 31.62] | 925
CC1(C)CCN(C(=O)C2CN(c3c4c(nc5c(Br)cnn35)CCNCC4)C2)CC1 [Example 31.138] | 71
C#CC(C)NC(=O)C1CN(c2c3c(nc4ccnn24)CCNCC3)C1 (stereo not shown) [Example 37.109] | 79
CCCC1CCN(C(=O)C2CN(c3c4c(nc5ccnn35)CCNCC4)C2)CC1 [Example 31.69] | 36
CC(C)(C)NC1CCN(C(=O)C2CN(c3c4c(nc5ccnn35)CCNCC4)C2)CC1 [Example 37.22] | 2
O=C(N[C@H]1C[C@@H]1c1ccccc1)C1CN(c2c3c(nc4ccnn24)CCNCC3)C1 [Example 31.28] | 314
FC(F)(F)c1ccc2c(c1)nc(C1CN(c3c4c(nc5ccnn35)CCNCC4)C1)n2Cc1ccccc1 [Example 34.34] | 2090
CC1(C)CCC(NC(=O)C2CN(c3c4c(nc5ccnn35)CCNCC4)C2)CC1 [Example 37.53] | 20
CN(Cc1ccccc1Br)C(=O)C1CN(c2c3c(nc4ccnn24)CCNCC3)C1 [Example 31.78] | 83
OC1CCCN(c2c3c(nc4ccnn24)CCNCC3)C1 (stereo not shown) [Example 1.38] | 1810
CN1CCc2nc3ccnn3c(N3CC(C(=O)N4CCNC(=O)C4)C3)c2CC1 [Example 36.14] | 364
CCOc1ccc(OC2CN(c3c4c(nc5ccnn35)CCNCC4)C2)cc1 [Example 35.53] | 324
COC[C@@H]1CCN1c1c2c(nc3ccnn13)CCNCC2 [Example 8, (S)-10-(2-Methoxymethyl-azetidin-1-yl)-6,7,8,9-tetrahydro-5H-1,4,7,10a-tetraaza-cyclohepta[f]indene] | 272
c1ccc(COC2CN(c3c4c(nc5ccnn35)CCNCC4)C2)cc1 [Example 20, 10-(3-Benzyloxy-azetidin-1-yl)-6,7,8,9-tetrahydro-5H-1,4,7,10a-tetraaza-cyclohepta[f]indene] | 350
COc1cccc(OCC2CN(c3c4c(nc5ccnn35)CCNCC4)C2)c1 [Example 15.20] | 26
FC(F)(F)c1ccnc(OC2CN(c3c4c(nc5ccnn35)CCNCC4)C2)c1 [Example 20.9] | 84
COc1ccc2ccc(OC3CN(c4c5c(nc6ccnn46)CCNCC5)C3)cc2c1 [Example 35.11] | 926
COCCN(C)C(=O)C1CN(c2c3c(nc4ccnn24)CCNCC3)C1 [Example 31.3] | 885
c1cc2nc3c(c(N4CCCOCC4)n2n1)CCNCC3 [Example 1, 10-[1,4]Oxazepan-4-yl-6,7,8,9-tetrahydro-5H-1,4,7,10a-tetraaza-cyclohepta[f]indene] | 908

Compound | EC50 [nM]
CC1CCCN1C(=O)C1CN(c2c3c(nc4ccnn24)CCNCC3)C1 (stereo not shown) [Example 31.73] | 252
CN1CCc2nc3ccnn3c(N3CC(C(=O)N4CCC(F)(F)C4)C3)c2CC1 [Example 36.30] | 117
O=C(C1CN(c2c3c(nc4ccnn24)CCNCC3)C1)N1CCC(C(F)(F)F)C1 (stereo not shown) [Example 31.95] | 41
CN1CCc2nc3ccnn3c(N3CC(C(=O)N4CCCN(C)CC4)C3)c2CC1 [Example 36.12] | 73
CN1CCc2nc3ccnn3c(N3CC(C(=O)N4CCN(C5CC5)CC4)C3)c2CC1 [Example 36.24] | 228
CN(c1ccccc1)C1CCN(C(=O)C2CN(c3c4c(nc5ccnn35)CCNCC4)C2)CC1 [Example 37.46] | 2
O=C(C1CN(c2c3c(nc4ccnn24)CCNCC3)C1)N1CCCC1c1ccccc1 (stereo not shown) [Example 31.45] | 575
O=C(Nc1ccccc1)C1CN(c2c3c(nc4ccnn24)CCNCC3)C1 [Example 31.16] | 2390
CC1(NC(=O)C2CN(c3c4c(nc5ccnn35)CCNCC4)C2)CCCC1 [Example 37.80] | 124
O=C(C1CN(c2c3c(nc4ccnn24)CCNCC3)C1)N1CCC2CC2(c2ccccc2)C1 (stereo not shown) [Example 31.233] | 106
c1ccc(O[C@H]2CCN(c3c4c(nc5ccnn35)CCNCC4)C2)cc1 [Example 1.46] | 582
O=C(NC1CCCC(C(F)(F)F)C1)C1CN(c2c3c(nc4ccnn24)CCNCC3)C1 (stereo not shown) [Example 37.59] | 47
O=C(NC1CCC(F)(F)CC1)C1CN(c2c3c(nc4ccnn24)CCNCC3)C1 [Example 37.47] | 126
CN1CCc2nc3ccnn3c(N3CC(C(=O)N4CCC(N(C)C)CC4)C3)c2CC1 [Example 36.5] | 51
Cc1coc(C2CN(c3c4c(nc5ccnn35)CCNCC4)C2)n1 [Example 13, 10-[3-(4-Methyl-oxazol-2-yl)-azetidin-1-yl]-6,7,8,9-tetrahydro-5H-1,4,7,10a-tetraaza-cyclohepta[f]indene] | 628
CC1CCN(C(=O)C2CN(c3c4c(nc5ccnn35)CCN(C)CC4)C2)C1 (stereo not shown) [Example 36.42] | 741
O=C(C1CN(c2c3c(nc4ccnn24)CCNCC3)C1)N1CC(Cc2ccccc2)C1 [Example 31.119] | 82
O=C(C1CN(c2c3c(nc4ccnn24)CCNCC3)C1)N1CCC(F)(F)CC1 [Example 31.203] | 67
CCN(C(=O)C1CN(c2c3c(nc4ccnn24)CCNCC3)C1)C(C)C [Example 31.11] | 306
COc1ccc(C)cc1OCC1CN(c2c3c(nc4ccnn24)CCNCC3)C1 [Example 15.7] | 12
CN1CCc2nc3ccnn3c(N3CC(C(=O)N4CC(N(C)C)C4)C3)c2CC1 [Example 36.48] | 269
O=C(C1CN(c2c3c(nc4ccnn24)CCNCC3)C1)N1CCCC(c2ccccc2F)C1 (stereo not shown) [Example 31.117] | 291
O=C(C1CN(c2c3c(nc4ccnn24)CCNCC3)C1)N1CCCC(c2ccccc2)C1 (stereo not shown) [Example 31.108] | 113
O=C(C1CN(c2c3c(nc4ccnn24)CCNCC3)C1)N1CCN(C2CCOCC2)CC1 [Example 37.31] | 7
